Assay [1] concerns the target T1, Peptidyl-prolyl cis-trans isomerase FKBP1A (Homo sapiens, UniProt P62942). Nature of the assay: Percent inhibition towards recombinant FK506 binding protein 12 to determine the FKBP binding property at a concentration of 100 uM.
Assay [2] deals with T1, Peptidyl-prolyl cis-trans isomerase FKBP1A. Nature of the assay: Binding affinity towards recombinant FK506 binding protein 12 to determine the FKBP binding property of the compound.

T1 sequence (P62942 whole entry): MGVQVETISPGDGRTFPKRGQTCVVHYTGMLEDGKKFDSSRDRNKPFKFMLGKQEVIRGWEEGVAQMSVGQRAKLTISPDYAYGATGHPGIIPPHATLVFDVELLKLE

By inhibition is commonly meant how much of the control response was suppressed. Take `C=C(C(=O)N1CCCC[C@H]1C(=O)OCCCCc1ccc(OC)cc1)c1cc(OC)c(OC)c(OC)c1`: in assay [1], the inhibition was 39%.

One may read the IC50 as the point on the concentration scale where inhibition reaches its midpoint. As for `COc1ccc(CCCCOC(=O)[C@@H]2CCCCN2C(=O)C(=O)c2cc(OC)c(OC)c(OC)c2)cc1`, the inhibition in assay [1] was 90%. Further, the IC50 in assay [2] is 16 µM.

Regarding `COc1ccc(CCCCOC(=O)[C@@H]2CCCCN2C(=O)C(C)c2cc(OC)c(OC)c(OC)c2)cc1` (stereo not given in full), in assay [1], the inhibition was found to be 47%.

In the case of `COc1ccc(CCCCOC(=O)[C@@H]2CCCCN2C(=O)Cc2cc(OC)c(OC)c(OC)c2)cc1`, in assay [1], the inhibition was 52%.

For the origin of these results see ChEMBL document CHEMBL1127287, “Synthesis and FKBP binding of small molecule mimics of the tricarbonyl region of FK506” (Bioorg Med Chem Lett, 1994).
